The structures appear in SMILES notation.

The nature of this data set: Electrochemical characterization of the active material (rotating disk electrode, diffusion coefficient, charge transfer rate constant). Type of data set: physicochemical. The settings on record: on a graphite felt electrode. The source says: FIG. 2 to FIG. 9 show the characterization of electrochemical performances of the prepared active material.

`C[N+](C)(C)CCCOc1cccc2c1C(=O)c1c(OCCC[N+](C)(C)C)cccc1C2=O` [Embodiment 1]: the “charge transfer rate constant” value was 0.00302 cm/s and the diffusion coefficient is 3.94×10^−6 cm^2/s.

Source of the values: patent US11677091B2, “Use of quaternary ammonium salt-type anthraquinone-based active material and salt cavern organic aqueous redox flow battery” (CHINA SALT JINTAN CO., LTD., priority 2020, dated 2023).
